One data set can be described thus: physchem. Conditions: water.
Data set [1] in a line: Stability in fistula Wistar-Han rat model assessed as drug stability in intestinal bacteria at 60 umol/kg, iv by HPLC-ES-MS/MS analysis. The format is ADME, organism-based, Intestine. The settings on record: in vivo, at 60 µmol/kg.
Data set [2] in a line: Drug metabolism in liver of fistula Wistar-Han rat model assessed as drug recovery of taurine conjugate at 60 umol/kg, iv by HPLC-ES-MS/MS analysis. It is filed as ADME, organism-based. Conditions: in vivo, dose 60 µmol/kg.
Data set [3] in a line: Stability in bile of fistula Wistar-Han rat model assessed as drug recovery of unmodified compound at 60 umol/kg, iv by HPLC-ES-MS/MS analysis. It is filed as ADME, organism-based. Conditions: at 60 µmol/kg, read-out: Drug recovery.
Data set [4] in a line: Drug metabolism in bile of fistula Wistar-Han rat model assessed as taurine conjugate formation at 60 umol/kg, iv by HPLC-ES-MS/MS analysis. It is filed as ADME, organism-based. The settings on record: in vivo, dose 60 µmol/kg.

In brackets after ≈: the same amount, converted by molar mass.

In general, solubility refers to how much of the substance goes into solution per volume.

`CC[C@H]1[C@@H](O)[C@@H]2[C@H]([C@@H](O)C[C@]3(C)[C@@H]([C@H](C)CCC(=O)O)CC[C@@H]23)[C@@]2(C)CC[C@@H](O)C[C@@H]12` yielded a solubility in the data set “physchem” of 150 µM (≈ 65.5 µg/mL). The Stabilty result in data set [1] was “Stable”. In data set [2], the Drug metabolism entry was “Metabolite_Notdetected”. Further, the dose excreted in data set [3] came out at 50%.

With `C[C@H](CCC(=O)O)[C@H]1CC[C@H]2[C@@H]3[C@H](O)C[C@@H]4C[C@H](O)CC[C@]4(C)[C@H]3C[C@H](O)[C@]12C` [CHOLIC ACID], in data set [3], the dose excreted is 10%.

In turn, `CC[C@H]1[C@@H](O)[C@@H]2[C@H](CC[C@]3(C)[C@@H]([C@H](C)CCC(=O)O)CC[C@@H]23)[C@@]2(C)CC[C@@H](O)C[C@@H]12` [OBETICHOLIC ACID] registered a solubility in “physchem” of 9 µM (≈ 3.79 µg/mL). Also, the Drug metabolism result in data set [4] is listed as “Metabolite_Detected”.

For `C[C@H](CCC(=O)O)[C@H]1CC[C@H]2[C@@H]3[C@@H](O)C[C@@H]4C[C@H](O)CC[C@]4(C)[C@H]3CC[C@]12C` [URSODIOL], in “physchem”, the solubility was 7 µM (≈ 2.75 µg/mL). In data set [4], the Drug metabolism result is “Metabolite_Detected”.

For `C[C@H](CCC(=O)O)[C@H]1CC[C@H]2[C@@H]3[C@H](O)C[C@@H]4C[C@H](O)CC[C@]4(C)[C@H]3CC[C@]12C` [CHENODIOL], the Drug metabolism entry in data set [4] was “Metabolite_Detected”.

(Values after ChEMBL document CHEMBL4680080 (J Med Chem, 2016).)
